Experiment: (§1) The drug is tested on Z-025 corresponding to rabbit gut metagenome with ENA study accession number: PRJEB37062 and ENA sample accession number: ERS12561824 for biotransformation under anaerobic condition. The drug concentrations were measured over 9 timepoints collected between 0 and 24 hours of incubation by liquid-chromatography-coupled mass spectrometry (LC–MS)
Settings: 2 µM
Note: call rule not given here.

SMILES | Bacterial Biotransformation
CN(C)CCOC(C)(c1ccccc1)c1ccccn1.O=C(O)CCC(=O)O (stereo not given) [DOXYLAMINE SUCCINATE] | Compound NOT metabolized
Br.CN1CCC[C@@H]1Cc1c[nH]c2ccc(CCS(=O)(=O)c3ccccc3)cc12 [ELETRIPTAN HYDROBROMIDE] | Compound NOT metabolized

Experiment: as §1, with “Z-023” for “Z-025”, “to” for “to rabbit gut”, “ERS12561822” for “ERS12561824”
Settings: 2 µM

SMILES | Bacterial Biotransformation
CN(C)CCOC(C)(c1ccccc1)c1ccccn1.O=C(O)CCC(=O)O (stereo not given) [DOXYLAMINE SUCCINATE] | Compound NOT metabolized
Br.CN1CCC[C@@H]1Cc1c[nH]c2ccc(CCS(=O)(=O)c3ccccc3)cc12 [ELETRIPTAN HYDROBROMIDE] | Compound NOT metabolized

Experiment: as §1, with “Z-022” for “Z-025”, “mouse” for “rabbit”, “ERS12561821” for “ERS12561824”
Settings: 2 µM

SMILES | Bacterial Biotransformation
CN(C)CCOC(C)(c1ccccc1)c1ccccn1.O=C(O)CCC(=O)O (stereo not given) [DOXYLAMINE SUCCINATE] | Compound NOT metabolized
Br.CN1CCC[C@@H]1Cc1c[nH]c2ccc(CCS(=O)(=O)c3ccccc3)cc12 [ELETRIPTAN HYDROBROMIDE] | Compound NOT metabolized

Experiment: as §1, with “Z-013” for “Z-025”, “ERS12561813” for “ERS12561824”
Settings: 2 µM

SMILES | Bacterial Biotransformation
CN(C)CCOC(C)(c1ccccc1)c1ccccn1.O=C(O)CCC(=O)O (stereo not given) [DOXYLAMINE SUCCINATE] | Compound NOT metabolized
Br.CN1CCC[C@@H]1Cc1c[nH]c2ccc(CCS(=O)(=O)c3ccccc3)cc12 [ELETRIPTAN HYDROBROMIDE] | Compound NOT metabolized

Experiment: as §1, with “Z-009” for “Z-025”, “pig” for “rabbit”, “ERS12561809” for “ERS12561824”
Settings: 2 µM

SMILES | Bacterial Biotransformation
CN(C)CCOC(C)(c1ccccc1)c1ccccn1.O=C(O)CCC(=O)O (stereo not given) [DOXYLAMINE SUCCINATE] | Compound NOT metabolized
Br.CN1CCC[C@@H]1Cc1c[nH]c2ccc(CCS(=O)(=O)c3ccccc3)cc12 [ELETRIPTAN HYDROBROMIDE] | Compound NOT metabolized

Experiment: as §1, with “Z-007” for “Z-025”, “rat” for “rabbit”, “ERS12561807” for “ERS12561824”
Settings: 2 µM

SMILES | Bacterial Biotransformation
CN(C)CCOC(C)(c1ccccc1)c1ccccn1.O=C(O)CCC(=O)O (stereo not given) [DOXYLAMINE SUCCINATE] | Compound NOT metabolized
Br.CN1CCC[C@@H]1Cc1c[nH]c2ccc(CCS(=O)(=O)c3ccccc3)cc12 [ELETRIPTAN HYDROBROMIDE] | Compound NOT metabolized

Experiment: as §1, with “Z-006” for “Z-025”, “mouse” for “rabbit”, “ERS12561806” for “ERS12561824”
Settings: 2 µM

SMILES | Bacterial Biotransformation
CN(C)CCOC(C)(c1ccccc1)c1ccccn1.O=C(O)CCC(=O)O (stereo not given) [DOXYLAMINE SUCCINATE] | Compound NOT metabolized
Br.CN1CCC[C@@H]1Cc1c[nH]c2ccc(CCS(=O)(=O)c3ccccc3)cc12 [ELETRIPTAN HYDROBROMIDE] | Compound NOT metabolized

Experiment: as §1, with “Z-004” for “Z-025”, “to” for “to rabbit gut”, “ERS12561804” for “ERS12561824”
Settings: 2 µM

SMILES | Bacterial Biotransformation
CN(C)CCOC(C)(c1ccccc1)c1ccccn1.O=C(O)CCC(=O)O (stereo not given) [DOXYLAMINE SUCCINATE] | Compound NOT metabolized
Br.CN1CCC[C@@H]1Cc1c[nH]c2ccc(CCS(=O)(=O)c3ccccc3)cc12 [ELETRIPTAN HYDROBROMIDE] | Compound NOT metabolized

Experiment: as §1, with “WLS-350” for “Z-025”, “human” for “rabbit”, “ERS12561789” for “ERS12561824”
Settings: 2 µM

SMILES | Bacterial Biotransformation
CN(C)CCOC(C)(c1ccccc1)c1ccccn1.O=C(O)CCC(=O)O (stereo not given) [DOXYLAMINE SUCCINATE] | Compound NOT metabolized
Br.CN1CCC[C@@H]1Cc1c[nH]c2ccc(CCS(=O)(=O)c3ccccc3)cc12 [ELETRIPTAN HYDROBROMIDE] | Compound NOT metabolized

Experiment: as §1, with “WLS-073” for “Z-025”, “human” for “rabbit”, “ERS12561749” for “ERS12561824”
Settings: 2 µM

SMILES | Bacterial Biotransformation
CN(C)CCOC(C)(c1ccccc1)c1ccccn1.O=C(O)CCC(=O)O (stereo not given) [DOXYLAMINE SUCCINATE] | Compound NOT metabolized
Br.CN1CCC[C@@H]1Cc1c[nH]c2ccc(CCS(=O)(=O)c3ccccc3)cc12 [ELETRIPTAN HYDROBROMIDE] | Compound metabolized

Experiment: as §1, with “WLS-052” for “Z-025”, “human” for “rabbit”, “ERS12561747” for “ERS12561824”
Settings: 2 µM

SMILES | Bacterial Biotransformation
CN(C)CCOC(C)(c1ccccc1)c1ccccn1.O=C(O)CCC(=O)O (stereo not given) [DOXYLAMINE SUCCINATE] | Compound NOT metabolized
Br.CN1CCC[C@@H]1Cc1c[nH]c2ccc(CCS(=O)(=O)c3ccccc3)cc12 [ELETRIPTAN HYDROBROMIDE] | Compound NOT metabolized

Experiment: as §1, with “WLS-010” for “Z-025”, “human” for “rabbit”, “ERS12561743” for “ERS12561824”
Settings: 2 µM

SMILES | Bacterial Biotransformation
CN(C)CCOC(C)(c1ccccc1)c1ccccn1.O=C(O)CCC(=O)O (stereo not given) [DOXYLAMINE SUCCINATE] | Compound NOT metabolized
Br.CN1CCC[C@@H]1Cc1c[nH]c2ccc(CCS(=O)(=O)c3ccccc3)cc12 [ELETRIPTAN HYDROBROMIDE] | Compound metabolized

Settings: human gut metagenome, 24 h, 2 µM

SMILES | Bacterial Biotransformation
CN(C)CCOC(C)(c1ccccc1)c1ccccn1.O=C(O)CCC(=O)O (stereo not given) [DOXYLAMINE SUCCINATE] | Compound NOT metabolized
Br.CN1CCC[C@@H]1Cc1c[nH]c2ccc(CCS(=O)(=O)c3ccccc3)cc12 [ELETRIPTAN HYDROBROMIDE] | Compound NOT metabolized

Settings: human gut metagenome, 24 h, 2 µM
Remark: another data set of the same source

SMILES | Bacterial Biotransformation
CN(C)CCOC(C)(c1ccccc1)c1ccccn1.O=C(O)CCC(=O)O (stereo not given) [DOXYLAMINE SUCCINATE] | Compound NOT metabolized
Br.CN1CCC[C@@H]1Cc1c[nH]c2ccc(CCS(=O)(=O)c3ccccc3)cc12 [ELETRIPTAN HYDROBROMIDE] | Compound NOT metabolized

Settings: human gut metagenome, 24 h, 2 µM
Remark: another data set of the same source

SMILES | Bacterial Biotransformation
CN(C)CCOC(C)(c1ccccc1)c1ccccn1.O=C(O)CCC(=O)O (stereo not given) [DOXYLAMINE SUCCINATE] | Compound NOT metabolized
Br.CN1CCC[C@@H]1Cc1c[nH]c2ccc(CCS(=O)(=O)c3ccccc3)cc12 [ELETRIPTAN HYDROBROMIDE] | Compound NOT metabolized

Settings: human gut metagenome, 24 h, 2 µM
Remark: another data set of the same source

SMILES | Bacterial Biotransformation
CN(C)CCOC(C)(c1ccccc1)c1ccccn1.O=C(O)CCC(=O)O (stereo not given) [DOXYLAMINE SUCCINATE] | Compound NOT metabolized
Br.CN1CCC[C@@H]1Cc1c[nH]c2ccc(CCS(=O)(=O)c3ccccc3)cc12 [ELETRIPTAN HYDROBROMIDE] | Compound NOT metabolized

Settings: human gut metagenome, 24 h, 2 µM
Remark: another data set of the same source

SMILES | Bacterial Biotransformation
CN(C)CCOC(C)(c1ccccc1)c1ccccn1.O=C(O)CCC(=O)O (stereo not given) [DOXYLAMINE SUCCINATE] | Compound NOT metabolized
Br.CN1CCC[C@@H]1Cc1c[nH]c2ccc(CCS(=O)(=O)c3ccccc3)cc12 [ELETRIPTAN HYDROBROMIDE] | Compound metabolized

Settings: human gut metagenome, 24 h, 2 µM
Remark: another data set of the same source

SMILES | Bacterial Biotransformation
CN(C)CCOC(C)(c1ccccc1)c1ccccn1.O=C(O)CCC(=O)O (stereo not given) [DOXYLAMINE SUCCINATE] | Compound NOT metabolized
Br.CN1CCC[C@@H]1Cc1c[nH]c2ccc(CCS(=O)(=O)c3ccccc3)cc12 [ELETRIPTAN HYDROBROMIDE] | Compound NOT metabolized

Settings: human gut metagenome, 24 h, 2 µM
Remark: another data set of the same source

SMILES | Bacterial Biotransformation
CN(C)CCOC(C)(c1ccccc1)c1ccccn1.O=C(O)CCC(=O)O (stereo not given) [DOXYLAMINE SUCCINATE] | Compound NOT metabolized
Br.CN1CCC[C@@H]1Cc1c[nH]c2ccc(CCS(=O)(=O)c3ccccc3)cc12 [ELETRIPTAN HYDROBROMIDE] | Compound NOT metabolized

Settings: human gut metagenome, 24 h, 2 µM
Remark: another data set of the same source

SMILES | Bacterial Biotransformation
CN(C)CCOC(C)(c1ccccc1)c1ccccn1.O=C(O)CCC(=O)O (stereo not given) [DOXYLAMINE SUCCINATE] | Compound NOT metabolized
Br.CN1CCC[C@@H]1Cc1c[nH]c2ccc(CCS(=O)(=O)c3ccccc3)cc12 [ELETRIPTAN HYDROBROMIDE] | Compound metabolized

Reference: ChEMBL document CHEMBL5724914, “Linking interpersonal differences in gut microbiota composition and drug biotransformation activity” (2024)
